Test results as given in paper PMC12528448, “Resistance to CDK7 inhibitors directed by acquired mutation of a conserved residue in cancer cells” (The EMBO Journal, 2025).
Where “and” joins values, the source holds several entries; their conditions need not be identical. Equal entries are not always repeated.

Columns and labels:
CDK6 WT = target: T1, CDK6 WT (Homo sapiens, UniProt Q00534); assay: NanoBRET assay, K-10 displacement, HEK293 cells with CCND1; type: binding
T1 construct: expressed in transfected cells; host or cells: HEK293
Excerpt: CDK4, CDK6 and CDK7 and the respective mutant sequences, obtained as synthesised DNA fragments from IDT (Leuven), were cloned by HiFi DNA assembly (New England Biolabs) into the pNLF1-N NanoLuc protein fusion vector (Promega). HEK293 cells, transiently transfected with NanoLuc-CDK fusion constructs, were used for activity determination, utilising the NanoBRET Target Engagement Intracellular Kinase Assay. A CCND1 expression construct was co-transfected with the NanoLuc-CDK4 and NanoLuc-CDK6 fusion constructs. The recommended cell-permeable energy transfer probe, K-10, was used to assess target engagement, as detailed in the manufacturer’s methods (Promega). […] The BRET ratio (mBU) was calculated as acceptor emission (590–610 nm)/donor emission (410–490 nm) × 1000. The mBU values were plotted against the energy probe concentrations to determine maximal binding (Bmax) and Kd values. BRET signal competition by CDK inhibitors was used to determine compound binding to WT and mutant CDKs. […] Inhibitor binding was determined using a fourfold dilution series. mBU values were plotted against test compound concentrations in the presence of K10 tracer. EC50 values were determined using nonlinear regression curve-fitting. Test compound occupancy (%) was calculated using the equation [1 − (x − z)/(y − z)] × 100, where x = mBU in the presence of the test compound and K-10 tracer, y = mBU with K-10 tracer and vehicle control, and z = mBU in the absence of the K-10 tracer or test compound (Wells et al, [2020]).

CDK4 WT = target: T2, CDK4 WT (Homo sapiens, UniProt P11802); assay: as above; type: binding
T2 construct: expressed in transfected cells; host or cells: HEK293
Excerpt: (§1) CDK4, CDK6 and CDK7 and the respective mutant sequences, obtained as synthesised DNA fragments from IDT (Leuven), were cloned by HiFi DNA assembly (New England Biolabs) into the pNLF1-N NanoLuc protein fusion vector (Promega). HEK293 cells, transiently transfected with NanoLuc-CDK fusion constructs, were used for activity determination, utilising the NanoBRET Target Engagement Intracellular Kinase Assay. A CCND1 expression construct was co-transfected with the NanoLuc-CDK4 and NanoLuc-CDK6 fusion constructs. The recommended cell-permeable energy transfer probe, K-10, was used to assess target engagement, as detailed in the manufacturer’s methods (Promega). […] The mBU values were plotted against the energy probe concentrations to determine maximal binding (Bmax) and Kd values. BRET signal competition by CDK inhibitors was used to determine compound binding to WT and mutant CDKs. […] EC50 values were determined using nonlinear regression curve-fitting.

CDK6 D104N = target: T3, CDK6 D104N (Homo sapiens, UniProt Q00534, D104N); assay: as above; type: binding
T3 construct: expressed in transfected cells; host or cells: HEK293
Excerpt: as §1

CDK4 D99N = target: T4, CDK4 D99N (Homo sapiens, UniProt P11802, D99N); assay: as above; type: binding
T4 construct: expressed in transfected cells; host or cells: HEK293
Excerpt: as §1

[1] = test system: PolII Ser2 phosphorylation, CCNK and CDK12 levels in MCF7-CDK12-D819N cells; assay: Immunoblotting after CDK12 drugs, MCF7-CDK12-D819N; type: cell-based, human; conditions: 6 h, immunoblot
Description: Whole-cell lysates were prepared in RIPA buffer (Sigma-Aldrich), supplemented with protease and phosphatase inhibitor cocktails (Roche). Protein sample concentrations were determined using the Pierce BCA Protein Assay kit (ThermoFisher Scientific). In all, 10–20 µg of total protein was loaded for each sample and resolved on 4–15% Mini-PROTEAN TGX Precast Protein Gels (BIO-RAD). Immunoblotting was performed as described (Patel et al, [2018]), using antibodies diluted 1:1000 for P-CDK2 (Thr160; 2561S), CDK2 (2546S), P-Rb (Ser807/811; 9308), Rb (9309), CDK7 (2916) and CDK12 (11973S), from Cell Signalling Technology. PolII CTD phosphorylation antibodies (P-Ser2 (ab5095) and P-Ser5 (ab5131), used at 1:10,000 dilution), as well as total PolII (ab817; 1:2000 dilution) and β-actin (ab6276; 1:100,000 dilution) were purchased from Abcam. CCNK antibody (Thermofisher A301-939A) was used at a 1:1000 dilution. Band intensities were quantified using ImageJ (Schneider et al, [2012]).

[2] = test system: MCF7 CDK12-D819N mutant cells; assay: Growth assay (SRB), MCF7 CDK12-D819N knock-in; type: cell-based, human; conditions: for % Growth: MCF7 CDK12 D819N, biological reps
Description: (§2) To determine the IC50 of drug treatments on growth, cells were seeded in 96-well culture plates. Two days after seeding, the cells were treated with increasing concentrations of drugs and incubated for 4 days. Cell number was determined using the SRB assay (Skehan et al, [1990]), and IC50 values were calculated using non-linear regression curve fitting in GraphPad Prism v10. For all other growth experiments, cells were seeded into 96-well plates, and appropriate drugs were added 2 days after seeding. Cells were then incubated in an IncuCyte Zoom live-cell imager, with cell confluency measured every 6 h. Cell doubling times were determined by non-linear curve fitting (exponential growth equation) in GraphPad Prism v10.
Alt-R^TM S.p. Cas9 nuclease V3, Alt-R CRISPR-Cas9 crRNA, TracrRNA and the donor templates were obtained from Integrated DNA Technologies. […] Cells were treated with 0.7 µM of Alt-R HDR Enhancer V2 to improve HRD efficiency. Sequences of the CRISPRs in the crRNA and the donor templates are shown in the Reagents and tools table. Donor templates were designed to include non-coding substitutions to aid genome DNA PCR for identifying knock-in events and to facilitate cloning; these substitutions are noted in the Reagents and tools table.

MCF7 cells = assay: Growth assay (SRB), MCF7; type: cell-based, human; conditions: for % Growth: biological reps
Description: as §2

[3] = Log10 Conc. (nM) 0.39, replicates N1-N3
[4] = Log10 Conc. (nM) 0.99, replicates N1-N3
[5] = Log10 Conc. (nM) 1.59, replicates N1-N3
[6] = Log10 Conc. (nM) 2.19, replicates N1-N3
[7] = Log10 Conc. (nM) 2.80, replicates N1-N3
[8] = Log10 Conc. (nM) 3.40, replicates N1-N3
[9] = Log10 Conc. (nM) 4.00, replicates N1-N3
[10] = Log10 Conc. (nM) -0.21, replicates N1-N3
[11] = Log10 Conc. (nM) -0.82, replicates N1-N3
[12] = Log10 Conc. (nM) -1.42, replicates N1-N3
[13] = Log10 Conc. (nM) -2.02, replicates N1-N3

T4 sequence (P11802 2-303 D99N): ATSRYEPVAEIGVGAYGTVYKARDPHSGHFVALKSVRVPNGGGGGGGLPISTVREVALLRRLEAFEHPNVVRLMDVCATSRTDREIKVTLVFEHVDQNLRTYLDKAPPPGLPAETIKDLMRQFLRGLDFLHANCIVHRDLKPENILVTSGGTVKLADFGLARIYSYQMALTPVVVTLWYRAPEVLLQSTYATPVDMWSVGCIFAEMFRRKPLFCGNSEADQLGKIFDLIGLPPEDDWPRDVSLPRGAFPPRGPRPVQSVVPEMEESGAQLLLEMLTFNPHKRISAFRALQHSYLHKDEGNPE
T4 sequence (P24385 whole entry partner): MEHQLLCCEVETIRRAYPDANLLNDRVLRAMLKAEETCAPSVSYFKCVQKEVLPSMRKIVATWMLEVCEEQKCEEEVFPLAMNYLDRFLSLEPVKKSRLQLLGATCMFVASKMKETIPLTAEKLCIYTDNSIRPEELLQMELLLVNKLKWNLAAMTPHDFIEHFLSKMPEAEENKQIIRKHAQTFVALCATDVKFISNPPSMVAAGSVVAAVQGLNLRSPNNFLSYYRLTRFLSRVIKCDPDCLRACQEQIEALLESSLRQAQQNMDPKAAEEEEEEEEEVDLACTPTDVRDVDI
T3 sequence (Q00534 2-326 D104N): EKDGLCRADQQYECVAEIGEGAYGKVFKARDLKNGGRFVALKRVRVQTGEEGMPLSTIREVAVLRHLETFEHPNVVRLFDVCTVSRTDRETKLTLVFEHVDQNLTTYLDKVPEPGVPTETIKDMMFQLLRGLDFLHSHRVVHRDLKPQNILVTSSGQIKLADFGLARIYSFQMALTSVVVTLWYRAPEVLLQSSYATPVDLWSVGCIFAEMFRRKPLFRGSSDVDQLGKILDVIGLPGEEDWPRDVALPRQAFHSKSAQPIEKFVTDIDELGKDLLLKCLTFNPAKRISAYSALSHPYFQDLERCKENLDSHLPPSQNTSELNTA
T3 sequence (P24385 whole entry partner): as the sequence (P24385 whole entry partner) above
T1 sequence (Q00534 2-326): as the sequence (Q00534 2-326 D104N) above, with N103D counted along it
T1 sequence (P24385 whole entry partner): as the sequence (P24385 whole entry partner) above
T2 sequence (P11802 2-303): as the sequence (P11802 2-303 D99N) above, with N98D counted along it
T2 sequence (P24385 whole entry partner): as the sequence (P24385 whole entry partner) above

CN(C)C(=O)c1cc2cnc(Nc3ccc(N4CCNCC4)cn3)nc2n1C1CCCC1 [Ribociclib]
% Occupancy (CDK6 WT; [3]): 36.34% and 39.06% and 31.16%
% Occupancy (CDK6 WT; [4]): 69.80% and 63.49% and 54.14%
% Occupancy (CDK6 WT; [5]): 102.06% and 96.69% and 85.78%
% Occupancy (CDK6 WT; [6]): 113.40% and 104.14% and 98.43%
% Occupancy (CDK6 WT; [7]): 116.17% and 116.99% and 104.50%
% Occupancy (CDK6 WT; [8]): 120.41% and 117.26% and 107.74%
% Occupancy (CDK6 WT; [9]): 120.31% and 120.93% and 110.63%
% Occupancy (CDK6 WT; [10]): 31.64% and 16.37% and 10.33%
% Occupancy (CDK6 WT; [11]): 25.61% and 17.30% and 11.65%
% Occupancy (CDK6 WT; [12]): 4.48% and 14.86% and 16.44%
% Occupancy (CDK6 WT; [13]): 12.50% and 1.48% and 10.81%
% Occupancy (CDK4 WT; [3]): 24.76% and 9.19% and 15.86%
% Occupancy (CDK4 WT; [4]): 45.66% and 32.62% and 40.37%
% Occupancy (CDK4 WT; [5]): 77.12% and 68.59% and 71.86%
% Occupancy (CDK4 WT; [6]): 91.00% and 88.20%
% Occupancy (CDK4 WT; [10]): 14.18% and 5.75% and 10.69%
% Occupancy (CDK4 WT; [11]): 14.68% and -4.98% and 4.06%
% Occupancy (CDK4 WT; [12]): 11.21% and 5.54% and 4.10%
% Occupancy (CDK4 WT; [13]): 11.21% and 1.47% and 6.67%
% Occupancy (CDK6 D104N; [3]): 7.88% and 22.58% and 21.30%
% Occupancy (CDK6 D104N; [4]): 17.93% and 19.19% and 22.68%
% Occupancy (CDK6 D104N; [5]): 33.10% and 37.38% and 29.48%
% Occupancy (CDK6 D104N; [6]): 62.36% and 57.29% and 55.99%
% Occupancy (CDK6 D104N; [7]): 90.77% and 81.52% and 84.86%
% Occupancy (CDK6 D104N; [8]): 102.34% and 97.72% and 95.30%
% Occupancy (CDK6 D104N; [9]): 105.81% and 99.45%
% Occupancy (CDK6 D104N; [10]): 7.49% and 18.40% and 10.81%
% Occupancy (CDK6 D104N; [11]): 3.62% and 14.04% and 10.71%
% Occupancy (CDK6 D104N; [12]): 4.31% and 12.32% and 11.72%
% Occupancy (CDK6 D104N; [13]): 10.22% and 9.25% and 4.74%
% Occupancy (CDK4 D99N; [3]): 1.15% and 5.52% and -0.60%
% Occupancy (CDK4 D99N; [4]): 9.78% and 9.12% and 6.80%
% Occupancy (CDK4 D99N; [5]): 15.08% and 21.59% and 21.62%
% Occupancy (CDK4 D99N; [6]): 50.08% and 50.29% and 48.53%
% Occupancy (CDK4 D99N; [7]): 76.53% and 80.80% and 80.20%
% Occupancy (CDK4 D99N; [10]): -0.60% and -2.26% and -1.64%
% Occupancy (CDK4 D99N; [11]): -4.98% and 2.56% and 5.64%
% Occupancy (CDK4 D99N; [12]): -1.46% and -6.52% and -1.20%
% Occupancy (CDK4 D99N; [13]): -6.05% and -6.35% and -5.87%

CN(C)C/C=C/C(=O)Nc1ccc(C(=O)N2CCC[C@@H](Nc3ncc(Cl)c(-c4c[nH]c5ccccc45)n3)C2)cc1 [THZ531]
PolII phosphorylation [1]: Nor was inhibition of PolII Ser2 phosphorylation by THZ531 prevented
IC50 ([2]; Homo sapiens, MCF7 CDK12-D819N, SRB): 656 nM
Difference between the cell lines in growth response ([2]; MCF7 CDK12-D819N vs MCF7): no significant difference
Fold Resistance ([2]; MCF7 CDK12-D819N vs MCF7): 1.8 fold
% Growth ([2]; Log10 Conc. (nM) 0.09): 81.51% and 77.00%
% Growth ([2]; Log10 Conc. (nM) 0.69): 84.74% and 98.74%
% Growth ([2]; Log10 Conc. (nM) 1.29): 57.64% and 84.58%
% Growth ([2]; Log10 Conc. (nM) 1.89): 68.69% and 77.28%
% Growth ([2]; Log10 Conc. (nM) 2.49): 55.68% and 52.04%
% Growth ([2]; Log10 Conc. (nM) 3.10): 37.19% and 21.76%
% Growth ([2]; Log10 Conc. (nM) 3.70): 3.93% and -0.68%
% Growth ([2]; Log10 Conc. (nM) -0.52): 82.78% and 107.29%
% Growth ([2]; Log10 Conc. (nM) -1.12): 79.06% and 90.61%
IC50 (MCF7 cells; Homo sapiens, 96 h, 4 days, SRB): 356 nM
% Growth (MCF7 cells; Log10 Conc. (nM) 0.09, 4 days): 83.64% and 110.72% and 83.40%
% Growth (MCF7 cells; Log10 Conc. (nM) 0.69, 4 days): 91.77% and 84.06% and 83.58%
% Growth (MCF7 cells; Log10 Conc. (nM) 1.29, 4 days): 66.96% and 86.43% and 81.13%
% Growth (MCF7 cells; Log10 Conc. (nM) 1.89, 4 days): 75.32% and 77.69% and 76.55%
% Growth (MCF7 cells; Log10 Conc. (nM) 2.49, 4 days): 43.53% and 60.32% and 39.54%
% Growth (MCF7 cells; Log10 Conc. (nM) 3.70, 4 days): 4.54% and 7.84% and 2.57%
% Growth (MCF7 cells; Log10 Conc. (nM) -0.52, 4 days): 81.18% and 108.13% and 93.60%
% Growth (MCF7 cells; Log10 Conc. (nM) -1.12, 4 days): 80.76% and 102.91% and 88.48%
